According to patent publication US11351178B2, “Selective HDAC6 inhibitors” (ITALFARMACO S.P.A., priority 2017, dated 2022):

Assays:
[1] = test system: CD4 and CD8 T cells of CT-26 bearing mice; experiment: Ex vivo stimulation of splenocytes with CT-26 tumor peptides, IFN-γ and TNF-α by CD4 and CD8 T cells (ELISPOT); type: in vivo, BALB/c mice; conditions: splenocytes stimulated with CT-26 specific peptides, FIGS. 4 and 5
Method: Splenocytes of animal treated with Compounds 8 and 10 and the combination with anti PD-1 Ab were stimulated with CT-26 derived tumor peptides and the production of IFN-γ and TNF-α by CD4 T cells was quantified by ELISPOT.
Splenocytes of animal treated with Compound 8 and 10 and the combination with anti PD-1 Ab were stimulated with CT-26 derived tumor peptides and the production of IFN-γ and TNF-α by CD8 Tcells was quantified by ELISPOT.
Adult BALB/c mice were injected s.c. with 1×10^6 CT26 tumor cells (diluted to 100 ul with phosphate-buffered saline). One week later, mice were given daily compounds 8 and 10 p.o. at 50 mg/Kg and/or injected with anti-PD1 antibody at 10 mg/Kg. At time of sacrifice, spleens were taken to analyze ex vivo, the tumor immune response. Spleen cells were stimulated with a mixture of CT-26 tumor specific peptides recognized in the context of both MHC I and MHC II. Thus, using this ex vivo stimulation, a specific tumor response mediated by CD4 and CD8 T cells can be detected.
The results are shown in FIGS. 4 and 5 where the percentage of CD4 and CD8 T cells that produce IFN-γ and TNF-α are indicated for each treatment group.

[2] = Pharmacokinetics after single intravenous and oral administration to the mouse
Method: Plasma levels and main pharmacokinetic parameters of test compounds were evaluated after single intravenous and oral administration to the mouse.
The formulations were prepared in a mixture of DMSO/PEG400/H2O. Blood was collected at the following sampling times: 5, 10, 15, 30 minutes, 1, 2, 4 and 6 hours after administration. Plasma samples (100 μL) were deproteinized by addition of 1% formic acid in ACN, then vortex mixed and centrifuged. For each sample, an aliquot of the supernatant was collected and diluted with water, filtered with 0.45 μm regenerated cellulose filter and analysed by LC-MS/MS. Plasma levels of the test compounds were calculated on a calibration curve prepared in the range 0.5-200 ng/mL.
Pharmacokinetic parameters were calculated on the mean plasma concentration curve using the software Kinetica™ v.

[3] = test system: H3 histone acetylation in 697 cell line; experiment: In vitro H3 histone acetylation in 697 cell line; type: cell-based; conditions: 16 h, read-out: Acetylation of H3 histone (fold increase of acetylated H3/total H3 towards control); for fold induction at 0.111 µM: conc 111 nM; for fold induction at 0.333 µM: conc 333 nM; for fold induction at 1 µM: conc 1000 nM
Method: (§1) The in vitro α-tubulin and H3 histone acetylation determination was evaluated on B 697 […] cell line.
(§2) The test molecules were diluted from 20 mM stock solution in DMSO with RPMI 10% FCS+0.01% DMSO medium at 20× concentration compared to the final concentration, added to the cells (15×10^6 cells in a total volume of 30 ml in RPMI medium 10% FCS+0.01% DMSO) to obtain the final concentrations of 1000, 333, 111 and 37 nM and incubated at 37° C., 5% CO2 for 16 hours.
The remaining cells (10×10^6) were treated by acid extraction of histones (Kazuhiro et al., PNAS (2002), 99 (13) 8921-8926). Cells were centrifuged 5 min at 1100 rpm at 4° C. and washed once in 0.9% NaCl. The resulting pellet was lysed with […] (10 mM Tris.HCl, pH 6.5/50 mM sodium bisulphite, 1% Triton X-100/10 mM MgCl2/8.6% saccharose containing the protease inhibitor mixture (Roche)) for 20 min at 4° C. The resulting nucleus pellet was repeatedly washed in buffer until supernatant clarification (centrifuged at 7,500×g, 5 minutes after each wash) and finally washed in nucleus buffer (10 mM Tris.HCl/13 mm EDTA, pH 7, 4) and resuspended in 250 μl of 0.2 M HCl/H2SO4. Histone proteins were extracted in an acidic environment by incubating overnight at 4° C. under gentle shaking. After centrifugation at 14,000 rpm at 4° C. for 10 minutes, 1250 μl of cold acetone was added to the supernatant and incubated overnight at −20° C., resulting in the precipitation of histone proteins. The pellet obtained after centrifugation for 10 minutes at 14000 rpm and 4° C. was washed with cold acetone, evaporated to dryness and resuspended in 50 μl distilled water. The protein content determination of both total and histone extracts was carried out by a colorimetric assay using a BCA Protein Assay Kit (Pierce cat: 23227).
H3 histone acetylation and total H3 amount were quantified by commercial ELISA assays PathScan acetylated histone H3 Sandwich Elisa kit, cat #7232C and PathScan total histone H3 Sandwich Elisa Kit, cat #7253C Cell Signaling) according to supplier reported method and by detecting absorbance at 450 nm wavelength using Multiskan Spectrum. ELISA tests were performed by analysing 0.250 μg and 0.500 μg of histone extract of each sample. The degree of acetylation was calculated by dividing H3 histone absorbance by histone total absorbance.
(§3) Test results of tubulin and H3 histone acetylation, expressed as fold increase of ratio of acetylated α-tubulin/total α-tubulin and H3Ac/H3Tot, respectively, of each sample relative to the control sample (untreated) are summarized in Tables 6 and 6′.

[4] = test system: α-tubulin acetylation in 697 cell line; experiment: In vitro α-tubulin acetylation in 697 cell line; type: cell-based; conditions: 16 hours, read-out: Tubulin acetylation (ratio of acetylated tubulin and total tubulin towards control); for fold induction at 0.037 µM: Conc 37 nM; for fold induction at 0.111 µM: Conc 111 nM; for fold induction at 0.333 µM: Conc 333 nM; for fold induction at 1 µM: Conc 1000 nM
Method: as §1, §2
At the end of the incubation period, 5×10^6 cells were taken from each sample, centrifuged for 5 minutes at 1100 rpm and washed in 0.9% NaCl at 4° C. The resulting pellet was lysed by treating at 4° C. for 30 minutes with 150 μl of Complete Lysis-M (Roche, cat-04719956051) containing protease inhibitors and phosphatase (Complete Easy Pack proteinase inhibitor cocktail tablets cat: 04693116001, Phostop easypack phosphatase inhibitor cocktails, cat: 01906837001—Roche), then centrifuged 10 minutes at 14,000 rpm (20817×g). 0.150 μg of supernatant (total protein extract) were diluted in 100 μl of 1×PBS and immobilized in Maxisorp F96 NUN-IMMUNO Plate (Nunc cat #5442404) at room temperature overnight. Plates were washed twice with Wash Buffer (PBS1X+0.005% tween 20) and saturated for 1 hour at room temperature with 300 μL of 1×PBS containing 10 FCS. After washing with buffer (1×PBS containing 0.005% tween), the plates were incubated for two hours at room temperature in the presence of anti-acetylated-α-tubulin antibody (Monoclonal Anti-acetylated-tubulin clone 6-11B-1, mouse ascites fluid, cat #T6793 Sigma, 100 μl diluted 1:1000 in 1×PBS containing 10% FCS) or with total anti-α-tubulin antibody (Monoclonal Anti alpha-tubulin produced in mouse, cat #T6074 Sigma). After washing, 100 μl per well of TMB substrate kit was added for 10 minutes at room temperature in the dark. The reaction was stopped by adding 50 μl of 2N H2SO4. The plates were read at Multiskan Spectrum spectrophotometer at a wavelength of 450 nm.
The degree of acetylation was calculated by dividing the absorbance obtained for acetylated α-tubulin by the absorbance of total α-tubulin.
as §3

Row | Structure (SMILES) | fold induction at 0.111 µM [3] | fold induction at 0.333 µM [3] | fold induction at 1 µM [3] | fold induction at 0.037 µM [4] | fold induction at 0.111 µM [4] | fold induction at 0.333 µM [4] | fold induction at 1 µM [4] | other results
1 | O=C(NO)c1ccc(Cn2nnnc2-c2cccs2)cc1 [comp. 8, N-hydroxy-4-((5-(thiophen-2-yl)-1H-tetrazol-1-yl)methyl)benzamide] | – | – | – | – | – | – | – | ex vivo tumor specific T cell immune response [1]: greater neo antigen immune response; AUCtot ([2]; Os, dose 5.2 mg/kg): 94 ng·h/mL; Cmax ([2]; Os, dose 5.2 mg/kg): 238 ng/mL; Tmax ([2]; Os, dose 5.2 mg/kg): 4.8 min; T1/2 ([2]; i.v., dose […]): 60 min; Vd ([2]; i.v., dose […]): 15.3 L/kg; bioavailability ([2]; plasma, po, 5.2 mg/kg): 18.5%
2 | O=C(NO)c1cc(F)c(Cn2nnc(-c3ccco3)n2)c(F)c1 [comp. 19, 3,5-difluoro-4-((5-(furan-2-yl)-2H-tetrazol-2-yl)methyl)-N-hydroxybenzamide] | 1 | 2 | 2 | 7 | 15 | 21 | 17 | –
3 | O=C(NO)c1cc(F)c(Cn2nnnc2-c2ncccn2)c(F)c1 [comp. 125, 3,5-difluoro-4-[(5-pyrimidin-2-yltetrazol-1-yl)methyl]benzenecarbohydroxamic acid] | 1 | 1 | 1 | 1 | 3 | 6 | 14 | –
4 | Cn1c(Sc2c(F)cc(C(=O)NO)cc2F)nnc1-c1cccc(CN2CCCCCC2)c1 [comp. 167, 4-[[5-[3-(azepan-1-ylmethyl)phenyl]-4-methyl-1,2,4-triazol-3-yl]sulfanyl]-3,5-difluoro-benzenecarbohydroxamic acid] | 1 | 1 | 2 | 2 | 3 | 9 | 13 | –
5 | O=C(NO)c1cc(F)c(Cn2nnnc2-c2cccs2)c(F)c1 [comp. 15, 3,5-difluoro-N-hydroxy-4-((5-(thiophen-2-yl)-1H-tetrazol-1-yl)methyl)benzamide] | 1 | 1 | 1 | 1 | 3 | 5 | 12 | –
6 | Cn1c(Sc2c(F)cc(C(=O)NO)cc2F)nnc1-c1cccnn1 [comp. 179, 3,5-difluoro-4-[(4-methyl-5-pyridazin-3-yl-1,2,4-triazol-3-yl)sulfanyl]benzenecarbohydroxamic acid] | – | – | 1 | 2 | 7 | 6 | 14 | –
7 | Cn1c(Sc2ccc(C(=O)NO)cc2)nnc1-c1cccs1 [comp. 10, N-hydroxy-4-((4-methyl-5-(thiophen-2-yl)-4H-1,2,4-triazol-3-yl)thio)benzamide] | – | – | – | – | – | – | – | ex vivo tumor specific T cell immune response [1]: greater neo antigen immune response; AUCtot ([2]; Os, dose 5.2 mg/kg): 123 ng·h/mL; Cmax ([2]; Os, dose 5.2 mg/kg): 144 ng/mL; Tmax ([2]; Os, dose 5.2 mg/kg): 15 min; T1/2 ([2]; i.v., dose […]): 78 min; Vd ([2]; i.v., dose […]): 20.5 L/kg; bioavailability ([2]; in vivo, po, 5.2 mg/kg): 25.8%
8 | Cn1c(Sc2c(F)cc(C(=O)NO)cc2F)nnc1-c1ncccc1F [comp. 180, 3,5-difluoro-4-[[5-(3-fluoro-2-pyridyl)-4-methyl-1,2,4-triazol-3-yl]sulfanyl]benzenecarbohydroxamic acid] | – | – | 1 | 2 | 7 | 15 | 19 | –
9 | Cn1c(Sc2c(F)cc(C(=O)NO)cc2F)nnc1-c1cccs1 [comp. 17, 3,5-difluoro-N-hydroxy-4-((4-methyl-5-(thiophen-2-yl)-4H-1,2,4-triazol-3-yl)thio)benzamide] | – | – | – | – | – | – | – | AUC ([2]; plasma, iv, 1.3 mg/kg): 114 ng·h/mL; C0 ([2]; plasma, iv, 1.3 mg/kg): 727 ng/mL; Vd ([2]; plasma, iv, 1.3 mg/kg): 16.8 L/kg; clearance ([2]; plasma, iv, 1.3 mg/kg): 190 mL/min/kg; half-life ([2]; plasma, iv, 1.3 mg/kg): 60 min; Tmax ([2]; plasma, po, […]): 4.8 min; bioavailability ([2]; plasma, po, […]): 18.4%
10 | Cn1c(Sc2c(F)cc(C(=O)NO)cc2F)nnc1-c1ccc(CN2CCCCCC2)cc1 [comp. 168, 4-[[5-[4-(azepan-1-ylmethyl)phenyl]-4-methyl-1,2,4-triazol-3-yl]sulfanyl]-3,5-difluoro-benzenecarbohydroxamic acid] | 1 | 1 | 2 | 3 | 11 | 19 | 16 | –
11 | Nc1ccc(-c2nnn(Cc3c(F)cc(C(=O)NO)cc3F)n2)cc1 [comp. 171, 4-[[5-(4-aminophenyl)tetrazol-2-yl]methyl]-3,5-difluoro-benzenecarbohydroxamic acid] | – | – | 3 | 10 | 19 | 20 | 22 | –
12 | O=C(NO)c1cc(F)c(Cc2nnc(-c3ccncc3)s2)c(F)c1 [compound 195, 3,5-difluoro-4-[[5-(4-pyridyl)-1,3,4-thiadiazol-2-yl]methyl]benzenecarbohydroxamic acid] | 1 | 1 | 1 | 6 | 11 | 10 | 14 | –
